Data: ChEMBL document CHEMBL5584201, “Amphiphilic tribasic galactosamines potentiate rifampicin in Gram-negative bacteria at low Mg++/Ca++concentrations” (Bioorg Med Chem Lett, 2024)

Experiments:
Format in all cases: functional
[1] = tested on: Pseudomonas aeruginosa; assay: Potentiation of rifampicin-induced antibacterial activity against Pseudomonas aeruginosa PAO1 assessed as fold change in rifampicin MIC in low salt containing media by Mueller-Hinton broth based assay
[2] = tested on: Pseudomonas aeruginosa; assay: Antibacterial activity against Pseudomonas aeruginosa PAO1 in low salt containing media by Mueller-Hinton broth based assay
[3] = tested on: Acinetobacter baumannii; assay: Potentiation of rifampicin-induced antibacterial activity against Acinetobacter baumannii ATCC 17978 assessed as fold change in rifampicin MIC in low salt containing media by Mueller-Hinton broth based assay
[4] = tested on: Pseudomonas aeruginosa; assay: Potentiation of rifampicin-induced antibacterial activity against Pseudomonas aeruginosa PAO1 assessed as rifampicin MIC in low salt containing media by Mueller-Hinton broth based assay
[5] = tested on: Escherichia coli; assay: Antibacterial activity against Escherichia coli ATCC 25922 in low salt containing media by Mueller-Hinton broth based assay
[6] = tested on: Acinetobacter baumannii; assay: Antibacterial activity against Acinetobacter baumannii ATCC 17978 in low salt containing media by Mueller-Hinton broth based assay
[7] = tested on: Escherichia coli; assay: Potentiation of rifampicin-induced antibacterial activity against Escherichia coli ATCC 25922 assessed as fold change in rifampicin MIC in low salt containing media by Mueller-Hinton broth based assay
[8] = tested on: Escherichia coli; assay: Potentiation of rifampicin-induced antibacterial activity against Escherichia coli ATCC 25922 assessed as rifampicin MIC in low salt containing media by Mueller-Hinton broth based assay
[9] = tested on: Acinetobacter baumannii; assay: Potentiation of rifampicin-induced antibacterial activity against Acinetobacter baumannii ATCC 17978 assessed as rifampicin MIC in low salt containing media by Mueller-Hinton broth based assay

Structure (SMILES) | fold change (FC) [1] | MIC [2] | fold change (FC) [3] | MIC [4] | MIC [5] | MIC [6] | fold change (FC) [7] | MIC [8] | MIC [9]
CCCCCCCCCCCCO[C@@H]1O[C@H](CN)[C@H](N)[C@H](OCc2ccc3ccccc3c2)[C@H]1N | 1 | 8 µg/mL | 8 | 2 µg/mL | 4 µg/mL | 4 µg/mL | 1 | 0.5 µg/mL | 1 µg/mL
CCCCCCCCO[C@@H]1O[C@H](CO)[C@H](N)[C@H](OCc2ccc3ccccc3c2)[C@H]1N | 1 | > 128 µg/mL | 2 | 16 µg/mL | 32 µg/mL | 32 µg/mL | 2 | 8 µg/mL | 8 µg/mL
NC[C@H]1O[C@@H](OCCCc2ccccc2)[C@H](N)[C@@H](OCc2ccc3ccccc3c2)[C@H]1N | 2 | > 128 µg/mL | 32 | 16 µg/mL | 64 µg/mL | 128 µg/mL | 32 | 16 µg/mL | 16 µg/mL
CCCCCCCCO[C@H]1[C@@H](N)[C@@H](CN=[N+]=[N-])O[C@@H](OCc2ccc3ccccc3c2)[C@@H]1N | 2 | 32 µg/mL | 128 | 8 µg/mL | 8 µg/mL | 16 µg/mL | 8 | 1 µg/mL | 4 µg/mL
